Measurements: PMC11400633, “Peptides inhibiting the assembly of monomeric human L‐lactate dehydrogenase into catalytically active homotetramer decrease the synthesis of lactate in cultured cells” (Protein Science : A Publication of the Protein Society, 2024)
*1 amine or outer side, *2 acyl side, *3 side chain or, on linkers, in order; H or OH if unused. [ ]: non-standard residue; d: D form. The star is where a group is joined. d(βAsp) = O=C(O)[C@@H](CC(=O)[*:2])N[*:1]; βAsp = O=C(O)[C@H](CC(=O)[*:2])N[*:1]; OBn = c1ccc(CO*)cc1

Columns and labels:
monomeric human LDH‐A [1] = molecular target: T1, monomeric human LDH‐A (Homo sapiens, UniProt P00338); test: Inhibition by peptides of LDH-A activity gained on assembly of monomeric LDH-A into tetramer; assay type: biochemical; conditions: 80 μM peptide incubated 5 min with 6.2 nM monomeric LDH-A, 10 mM Tris-HCl + 10 mM BisTris pH 7.5, started with 125 μM β-NADH and 500 μM pyruvate, 25°C, A340, vs control with 1% DMSO, mean ± SD, n = 3
T1 construct: made in house; host or cells: E. coli BL21(DE3), pET9a (NdeI/BamHI)
Method: (§1) In particular, all the peptides were tested at 80 μM (final concentration), and the LDH activity detected in their presence was compared with the catalytic action observed with control samples devoid of any peptide. First, we decided to assay the octameric peptide TH1, the primary structure of which ([…]) is identical to the LDH‐A region spanning residues 295–302. […] Indeed, the catalytic action exerted by 6 nM tetrameric LDH‐A (in 10 mM Tris–HCl, pH 7.5, containing 150 mM NaCl) was determined as equal to 433 ± 11 and 452 ± 19 nM/s in the absence and in the presence of 80 μM TH1 octapeptide, respectively. Overall, this insensitivity along with the significant effect elicited by TH1 on monomeric LDH‐A indicate that the octapeptide inhibits the assembly of LDH‐A monomers into the corresponding, catalytically active, tetramer. To dissect the inhibition triggered by TH1 on monomeric LDH‐A, we decided to evaluate: (i) whether or not the two halves of the octapeptide, that is, GQNG and ISDL, are equally competent in inhibiting LDH‐A; (ii) the action of linear and cyclic peptides, containing or not D amino acids; and (iii) the effect, if any, triggered by the presence of protecting groups in the peptides to be assayed. It should be noted that to allow the cyclization of tetrapeptide GQNG while maintaining a terminal carboxylic group, the sequence was modified to GQND, while for the cyclization of ISDL while maintaining a terminal amino group, the sequence was modified into KSDL (Table 1).
FIGURE 8 Inhibition exerted by linear and cyclic peptides on LDH‐A activity detected in vitro. […] The gray bars (in “a” and “d”) represent the activity observed in the presence of the same volume of DMSO (1%, v/v) carried to the assay mixtures by the peptides to be tested. (a–c) The effect, if any, of tetrameric peptides featuring the GQND primary structure (see also Table 1) on LDH‐A activity is shown. The inhibition exerted by the octameric peptide TH1 is also reported in “a.” The enzyme activity observed in the presence of linear or cyclic peptides is shown in “b” and “c”, respectively. (d) Extent of LDH‐A activity detected in the presence of linear or cyclic tetrapeptides featuring the KSDL primary structure. Error bars represent SD (n = 3). The experimental observations were compared by Student's t‐test. The ***, **, and * symbols denote p values lower than 0.001, 0.01, and […], respectively. (e) Simulation of the association between the TH2 peptide and monomeric LDH‐A. Predicted interactions between the cyclopeptide c[GQN‐isoD] (TH2) and the N‐terminal sequence Y^9[…]^19, as simulated by molecular dynamics in a box of explicit TIP3P water molecules; gray and red dotted lines represent hydrogen bonds and salt bridges, respectively.
All the assays were performed at 25°C using a Cary 300 Bio spectrophotometer.

MCF7 cells = test: Colorimetric assay of lactate secretion by MCF7 cells (expressing LDH-A); assay type: cell-based, human; conditions: for decrease of the concentration of secreted lactate: MCF7, 80 μM peptide with Lipofectamine 2000 (0.5% v/v), 1% DMSO, Krebs-Ringer buffer, 4 h, 37°C, colorimetric, n = 3, vs cells without peptide; for effect on lactate production in the absence of lipofectamine: MCF7, peptide without lipofectamine
Text: Having identified peptides able to interfere with the assembly of monomeric LDH‐A into catalytically active tetramer, we considered of interest to test the action of peptides against LDH‐A expressed in human cell lines. In particular, we analyzed the lactate secreted by cultured human cells exposed or not to the peptides better performing as inhibitors of LDH‐A in vitro, that is, TH1, TH2, and TH16. Moreover, we used two different cell lines exclusively expressing LDH‐A or LDH‐B, that is, MCF7 and BxPC3, respectively. In MCF7 cells, the [mRNALDH‐A]/[mRNALDH‐B] ratio is indeed equal to ca. 150 (Figure 9a), whereas in BxPC3 cells the messenger coding for LDH‐A was not detected (Figure 9a). Therefore, by comparing the decrease, if any, of the lactate concentration secreted by these two cell lines the selectivity of peptides acting against LDH‐A or LDH‐B can be conveniently estimated. When the MCF7 cell line is considered, the linear TH16 and the cyclic TH2 tetrapeptide performed equally, being both responsible for a concentration of secreted lactate 20% lower than that detected in their absence (Figure 9b). […] Accordingly, it seems likely that lipofectamine is effective in assisting the penetration of the TH16 and TH2 peptides into cells, with this action of lipofectamine being much weaker when dealing with a larger molecule, that is, an octapeptide.
To evaluate the competence of peptides in inhibiting the action of LDH‐A in cultured cells, two human cell cultures were used: MCF7 and BxPC3, isolated from breast and pancreatic adenocarcinoma, respectively. Cultures were grown in DMEM (MCF7) or RPMI medium (BxPC3), supplemented with 100 U/ml penicillin/streptomycin, 2 mM glutamine and 10% (v/v) FBS. All the components of the media used for cell culture were obtained from Merck‐Millipore.
The competence of peptides in inhibiting LDH in cultured cells was tested by assessing the concentration of lactate released by MCF7 and BxPC3 cell cultures. To this aim, cells were seeded in duplicate in 24‐wells plates (2 × 10^5/well) and let to adhere overnight; the culture medium was then replaced by Krebs‐Ringer buffer (300 μl/well). Stock solutions of peptides (8 mM in DMSO) were diluted in Krebs‐Ringer buffer to a final concentration of 640 μM and mixed with an equal volume of 4% (v/v, in Krebs‐Ringer buffer) Lipofectamine 2000 (Invitrogen). The final solution was thoroughly mixed, kept for 25 min at room temperature, and finally 100 μl were added to each plate well, obtaining a final peptide concentration equal to 80 μM. The concentration of lactate released in the Krebs–Ringer buffer was determined after 4 h of incubation at 37°C, using the colorimetric assay previously reported (Rossi et al., [2023]). Each experiment was performed in triplicate and included control samples consisting of untreated cell cultures exposed to the same final concentration of DMSO (1%, v/v) and Lipofectamine (0.5%, v/v) to which were exposed the samples treated with peptides.

BxPC3 cells = test: Colorimetric assay of lactate secretion by BxPC3 cells (expressing LDH-B); assay type: cell-based, human; conditions: BxPC3, 80 μM peptide with Lipofectamine 2000 (0.5% v/v), 1% DMSO, Krebs-Ringer buffer, 4 h, 37°C, n = 3
Text: Having identified peptides able to interfere with the assembly of monomeric LDH‐A into catalytically active tetramer, we considered of interest to test the action of peptides against LDH‐A expressed in human cell lines. In particular, we analyzed the lactate secreted by cultured human cells exposed or not to the peptides better performing as inhibitors of LDH‐A in vitro, that is, TH1, TH2, and TH16. Moreover, we used two different cell lines exclusively expressing LDH‐A or LDH‐B, that is, MCF7 and BxPC3, respectively. In MCF7 cells, the [mRNALDH‐A]/[mRNALDH‐B] ratio is indeed equal to ca. 150 (Figure 9a), whereas in BxPC3 cells the messenger coding for LDH‐A was not detected (Figure 9a). Therefore, by comparing the decrease, if any, of the lactate concentration secreted by these two cell lines the selectivity of peptides acting against LDH‐A or LDH‐B can be conveniently estimated. When the MCF7 cell line is considered, the linear TH16 and the cyclic TH2 tetrapeptide performed equally, being both responsible for a concentration of secreted lactate 20% lower than that detected in their absence (Figure 9b). […] It should indeed be noted that the assays with cells were performed in the presence of lipofectamine (see Section 5). […] Accordingly, it seems likely that lipofectamine is effective in assisting the penetration of the TH16 and TH2 peptides into cells, with this action of lipofectamine being much weaker when dealing with a larger molecule, that is, an octapeptide.
To evaluate the competence of peptides in inhibiting the action of LDH‐A in cultured cells, two human cell cultures were used: MCF7 and BxPC3, isolated from breast and pancreatic adenocarcinoma, respectively. […]
The competence of peptides in inhibiting LDH in cultured cells was tested by assessing the concentration of lactate released by MCF7 and BxPC3 cell cultures. […] The concentration of lactate released in the Krebs–Ringer buffer was determined after 4 h of incubation at 37°C, using the colorimetric assay previously reported (Rossi et al., [2023]). […]

tetrameric LDH‐A [2] = molecular target: T2, tetrameric LDH‐A (Homo sapiens, UniProt P00338); test: Activity assay of tetrameric LDH-A in the presence of peptide; assay type: biochemical; conditions: 6 nM tetrameric LDH-A, 10 mM Tris-HCl pH 7.5, 150 mM NaCl, 80 μM peptide
T2 construct: made in house; host or cells: E. coli BL21(DE3), pET9a (NdeI/BamHI)
Method: as §1, with “It should be noted that to allow the cyclization of tetrapeptide GQNG while maintaining a terminal carboxylic group, the sequence was modified to GQND, while for the cyclization of ISDL while maintaining a terminal amino group, the sequence was modified into KSDL (Table 1).” left out

monomeric human LDH‐A [3] = molecular target: T1, monomeric human LDH‐A; test: Steady-state kinetics of pyruvate reduction by monomeric LDH-A (assembled monomers); assay type: biochemical; conditions: variable β-NADH, 500 μM pyruvate, 7.6 nM monomer, pH 7.5, 25°C
Method: (§2) To further characterize the catalytic action of monomeric LDH-A exposed to β-NADH and pyruvate, and therefore assembled into tetramer (cf. […] In addition, the kinetics of pyruvate reduction catalyzed by tetrameric LDH-A was assayed under the same conditions used for the monomeric enzyme. Structurally and functionally speaking, the availability of monomeric LDH-A does indeed provide an unprecedented and quite interesting tool to perform quantitative tests of the assembly of monomers into the corresponding catalytically active tetramer. […] In addition to this, the enzyme kinetic parameters were also determined testing reaction velocity as a function of β-NADH concentration, in the presence of 500 μM pyruvate. […] The continuous lines represent the best fit of the Michaelis-Menten equation to the experimental observations. […] The continuous lines represent the best fit of the Michaelis-Menten equation to the experimental observations. (c) Kinetic parameters determined by performing activity assays using monomeric or tetrameric LDH-A, at the indicated final concentrations. Under conditions of variable pyruvate concentration, β-NADH was always used at 125 μM. When reaction mixtures contained variable concentrations of the redox cofactor, pyruvate was invariably added at 500 μM. All the assays were performed at pH 7.5 (Tris-BisTris, 10 mM each.

tetrameric LDH‐A [4] = molecular target: T2, tetrameric LDH‐A; test: Steady-state kinetics of pyruvate reduction by tetrameric LDH-A; assay type: biochemical; conditions: variable β-NADH, 500 μM pyruvate, 1.9 nM tetramer, pH 7.5, 25°C
Method: as §2

Substance | Inhibition (%) of LDH‐A activity (monomeric human LDH‐A [1]) [%] | further results
H-GQND(OBn)-OH (SMILES NCC(=O)N[C@@H](CCC(N)=O)C(=O)N[C@@H](CC(N)=O)C(=O)N[C@@H](CC(=O)OCc1ccccc1)C(=O)O) [TH14] | 15 ± 4 | 
H-GQND-OBn (SMILES NCC(=O)N[C@@H](CCC(N)=O)C(=O)N[C@@H](CC(N)=O)C(=O)N[C@@H](CC(=O)O)C(=O)OCc1ccccc1) [TH6] | 14 ± 7 | 
H-GQNGISDL-OH [TH1] | 36 ± 1 | decrease of the concentration of secreted lactate (MCF7 cells): did not induce any significant effect; effect on lactate secretion (BxPC3 cells): did not induce any significant effect; inhibition of tetrameric LDH‐A activity (in words) (tetrameric LDH‐A [2]): no significant inhibition; catalytic action exerted by tetrameric LDH‐A in the presence of peptide (tetrameric LDH‐A [2]; without peptide 433 ± 11 nM/s): 452 ± 19 nM/s
H-KSD[dL]-OH (SMILES CC(C)C[C@@H](NC(=O)[C@H](CC(=O)O)NC(=O)[C@H](CO)NC(=O)[C@@H](N)CCCCN)C(=O)O) [TH19] | 4 ± 3 | 
H‐Gly‐Gln‐Asn‐Asp‐OH [TH16] | 22 ± 2 | decrease of the concentration of secreted lactate (MCF7 cells): 20%; effect on lactate production in the absence of lipofectamine (MCF7 cells): negligible and not significant effects; effect on lactate secretion (BxPC3 cells): no significant differences
H‐Lys‐Ser‐Asp‐Leu‐OH [TH18] | 5 ± 6 | 
c[Gly‐Gln‐Asn‐D‐isoAsp(OBn)] (head to tail) [TH11] | 8 ± 4 | 
c[Gly‐Gln‐Asn‐isoAsp(OBn)] (head to tail) [TH10] | 6 ± 3 | 
c[isoLys‐Ser‐Asp‐D‐Leu] (sidechain bridge or staple) [TH5] | 7 ± 3 | 
c[isoLys‐Ser‐Asp‐Leu] (sidechain bridge or staple) [TH4] | 16 ± 3 | 
cyclo(GQND(OBn)) (SMILES NC(=O)CC[C@@H]1NC(=O)CNC(=O)[C@H](CC(=O)OCc2ccccc2)NC(=O)[C@H](CC(N)=O)NC1=O) [TH15] | 9 ± 2 | 
cyclo(GQN[d(βAsp)]) (SMILES NC(=O)CC[C@@H]1NC(=O)CNC(=O)C[C@H](C(=O)O)NC(=O)[C@H](CC(N)=O)NC1=O) [TH3] | 26 ± 1 | 
cyclo(GQN[βAsp]) (SMILES NC(=O)CC[C@@H]1NC(=O)CNC(=O)C[C@@H](C(=O)O)NC(=O)[C@H](CC(N)=O)NC1=O) [TH2] | 31 ± 3 | decrease of the concentration of secreted lactate (MCF7 cells): 20%; effect on lactate production in the absence of lipofectamine (MCF7 cells): negligible and not significant effects; effect on lactate secretion (BxPC3 cells): no significant differences
β‐NADH |  | K m for β‐NADH, monomeric LDH‐A (assembled monomers) (monomeric human LDH‐A [3]): 7.7 ± 1.1 µM; K m for β‐NADH, tetrameric LDH‐A (tetrameric LDH‐A [4]): 9.0 ± 0.6 µM
